Assay [1] concerns the target Adenosine A2a (ADORA2A) receptor (Homo sapiens (Human), UniProt P29274). The assay is described as follows: ADORA2A Receptor Binding Assay. The conditions noted are these: radioligand binding, membrane stock. A digest of the protocol: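 Test compounds incubated with A2a receptor membranes and a ³H-labelled radioligand for 2 hours at room temperature, then filtered through PEI-presoaked GF/C plates and washed. Filter-bound ³H counted by scintillation; % inhibition calculated from background-subtracted signal relative to high control.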

Assay [2] concerns the target Adenosine A2B (ADORA2B) receptor (Homo sapiens (Human), UniProt P29275). Put plainly: ADORA2B Receptor Binding Assay. The conditions noted are these: radioligand binding, membrane stock. Summed up:
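Radioligand competition binding on human A2B receptor membranes, 1 h at room temperature, then filtration through BSA-presoaked GF/C filters and ³H counting by scintillation. Inhibition expressed as % of high control after background subtraction.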

Chain of Adenosine A2B (ADORA2B) receptor (P29275 whole entry): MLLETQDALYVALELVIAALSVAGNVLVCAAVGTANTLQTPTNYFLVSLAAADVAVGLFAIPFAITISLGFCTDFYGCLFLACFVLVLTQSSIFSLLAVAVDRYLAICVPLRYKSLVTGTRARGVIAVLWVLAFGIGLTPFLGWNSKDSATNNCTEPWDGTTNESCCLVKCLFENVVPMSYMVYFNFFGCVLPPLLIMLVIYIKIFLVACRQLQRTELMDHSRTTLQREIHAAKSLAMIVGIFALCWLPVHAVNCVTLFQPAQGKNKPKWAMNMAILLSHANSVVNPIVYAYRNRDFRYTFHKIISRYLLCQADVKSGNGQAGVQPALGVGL
Chain of Adenosine A2a (ADORA2A) receptor (P29274 whole entry): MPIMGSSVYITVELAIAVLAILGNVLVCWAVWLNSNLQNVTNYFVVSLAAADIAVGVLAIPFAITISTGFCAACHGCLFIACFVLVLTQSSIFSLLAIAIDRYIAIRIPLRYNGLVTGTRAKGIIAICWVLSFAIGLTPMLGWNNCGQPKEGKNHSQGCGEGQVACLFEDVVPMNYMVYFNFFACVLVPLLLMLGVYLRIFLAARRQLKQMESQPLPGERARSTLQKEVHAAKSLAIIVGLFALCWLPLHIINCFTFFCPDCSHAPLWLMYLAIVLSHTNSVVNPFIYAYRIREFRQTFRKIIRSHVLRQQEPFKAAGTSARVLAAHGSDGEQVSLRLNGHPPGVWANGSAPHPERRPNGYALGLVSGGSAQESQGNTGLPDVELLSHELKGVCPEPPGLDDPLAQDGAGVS

Turning to `Cc1ccc(-c2nc(NC(=O)C3CC3)cn3nc(N)nc23)o1` [Compound 187, N-[2-amino-8-(5-methylfuran-2-yl)-[1,2,4]triazolo[1,5-a]pyrazin-6-yl]cyclopropanecarboxamide], the IC50 in assay [1] and in assay [2] was below 10 nM each time.
In the case of `Cc1ccc(-c2nc(NC(=O)C3CC3)cn3cc(CO)nc23)o1` [Compound 209, N-[2-(hydroxymethyl)-8-(5-methylfuran-2-yl)imidazo[1,2-a]pyrazin-6-yl]cyclopropanecarboxamide], the IC50 in assay [1] is below 10 nM; in assay [2] it was 10 to 100 nM.
On to `Cc1nc2cc(NC(=O)N3CC[C@@H](O)C3)nc(-c3ccco3)n2n1` [Compound 104, (3R)-N-[5-(furan-2-yl)-2-methyl-[1,2,4]triazolo[1,5-c]pyrimidin-7-yl]-3-hydroxypyrrolidine-1-carboxamide], for which the IC50 in assay [1] was 100 to 1000 nM; in assay [2] it was above 1000 nM.
As to `CCNC(=O)Nc1cc2nc(C)nn2c(-c2ccco2)n1` [Compound 155, 1-ethyl-3-[5-(furan-2-yl)-2-methyl-[1,2,4]triazolo[1,5-c]pyrimidin-7-yl]urea], the IC50 in assay [1] and in assay [2] was 10 to 100 nM each time.
As to `Cc1cn2c(Cl)c(N)nc(-c3ccccc3)c2n1` [Compound 201, 5-chloro-2-methyl-8-phenylimidazo[1,2-a]pyrazin-6-amine], the half-maximal inhibitory concentration (IC50) in assay [1] lay within 10 to 100 nM; in assay [2], 100 to 1000 nM.
Consider `COc1ccc(-c2nc(N)cc3nc(C)nn23)cc1` [Compound 115, 5-(4-methoxyphenyl)-2-methyl-[1,2,4]triazolo[1,5-c]pyrimidin-7-amine], for which the IC50 in assay [1] is 100 to 1000 nM; in assay [2], above 1000 nM.
For `Cc1nc2cc(NC(=O)C3CC3)nc(-c3ccoc3)n2n1` [Compound 73, N-[5-(furan-3-yl)-2-methyl-[1,2,4]triazolo[1,5-c]pyrimidin-7-yl]cyclopropanecarboxamide], the IC50 is 10 to 100 nM in assay [1] and 100 to 1000 nM in assay [2].
As to `Cc1ccc(-c2nc(N)c(Cl)n3nc(C)nc23)cc1` [Compound 184, 5-chloro-2-methyl-8-(4-methylphenyl)-[1,2,4]triazolo[1,5-a]pyrazin-6-amine], the concentration for half-maximal inhibition (IC50) in assay [1] and in assay [2] was below 10 nM each time.
Turning to `Cc1ccc(-c2nc(NC(=O)C3CC3)cn3cc(C(F)(F)F)nc23)o1` [Compound 197, N-[8-(5-methylfuran-2-yl)-2-(trifluoromethyl)imidazo[1,2-a]pyrazin-6-yl]cyclopropanecarboxamide], the half-maximal inhibitory concentration (IC50) in assay [1] and in assay [2] was below 10 nM in each case.
In the case of `Cc1nc2cc(NC(=O)C3CC3)nc(-c3ccc(S(N)(=O)=O)cc3)n2n1` [Compound 114, N-[2-methyl-5-(4-sulfamoylphenyl)-[1,2,4]triazolo[1,5-c]pyrimidin-7-yl]cyclopropanecarboxamide], the half-maximal inhibitory concentration (IC50) in assay [1] and in assay [2] was above 1000 nM each time.
As for `Cc1ccc(-c2nc(NC(=O)C3CC3)cc3nc(C(F)(F)F)nn23)o1` [Compound 20, N-[5-(5-methylfuran-2-yl)-2-(trifluoromethyl)-[1,2,4]triazolo[1,5-c]pyrimidin-7-yl]cyclopropanecarboxamide], the IC50 in assay [1] and in assay [2] was below 10 nM each time.
With `Cc1nc2c(Cl)c(N(C)C)nc(-c3ccc(C)o3)n2n1` [Compound 24, 8-chloro-N,N,2-trimethyl-5-(5-methylfuran-2-yl)-[1,2,4]triazolo[1,5-c]pyrimidin-7-amine], the IC50 in assay [1] and in assay [2] was above 1000 nM each time.
`CC(=O)Nc1cc2nc(C(C)C)nn2c(-c2cnco2)n1` [Compound 49, N-[5-(1,3-oxazol-5-yl)-2-propan-2-yl-[1,2,4]triazolo[1,5-c]pyrimidin-7-yl]acetamide]: the IC50 lay in the range of 10 to 100 nM in assay [1] and 100 to 1000 nM in assay [2].
For `CC(=O)Nc1cc2nc(C)nn2c(-c2cnc(C)o2)n1` [Compound 44, N-[2-methyl-5-(2-methyl-1,3-oxazol-5-yl)-[1,2,4]triazolo[1,5-c]pyrimidin-7-yl]acetamide], in that order: 10 to 100 nM and 10 to 100 nM.
With `Cc1nc2c3cccnc3nc(-c3ccco3)n2n1` [Compound 137, 7-(furan-2-yl)-4-methyl-3,5,6,8,10-pentazatricyclo[7.4.0.0^2,6]trideca-1(9),2,4,7,10,12-hexaene], the IC50 in assay [1] and in assay [2] was above 1000 nM in each case.
For `Cc1nc2cc(NC(=O)OC(C)(C)C)nc(-c3ccc(S(C)(=O)=O)cc3)n2n1` [Compound 100, tert-butyl N-[2-methyl-5-(4-methylsulfonylphenyl)-[1,2,4]triazolo[1,5-c]pyrimidin-7-yl]carbamate], the IC50 in assay [1] and in assay [2] was above 1000 nM each time.
Regarding `Cc1nc2cc(NC(=O)CF)nc(-c3ccco3)n2n1` [Compound 145, 2-fluoro-N-[5-(furan-2-yl)-2-methyl-[1,2,4]triazolo[1,5-c]pyrimidin-7-yl]acetamide], the IC50 in assay [1] and in assay [2] was 10 to 100 nM in each case.
Consider `Cc1cccc(-c2nc(N)c(Cl)n3cc(C)nc23)c1` [Compound 207, 5-chloro-2-methyl-8-(3-methylphenyl)imidazo[1,2-a]pyrazin-6-amine], for which the half-inhibitory concentration (IC50) in assay [1] and in assay [2] was 100 to 1000 nM in each case.
Take `CC(=O)Nc1cc2nc(C)nn2c(-c2cccc(F)c2)n1` [Compound 132, N-[5-(3-fluorophenyl)-2-methyl-[1,2,4]triazolo[1,5-c]pyrimidin-7-yl]acetamide]: the IC50 was in the range of 10 to 100 nM in assay [1] and 100 to 1000 nM in assay [2].
Regarding `Cc1nc2c3cc(C)[nH]c3nc(-c3ccc(C)o3)n2n1` [Compound 45, 4,11-dimethyl-7-(5-methylfuran-2-yl)-3,5,6,8,10-pentazatricyclo[7.3.0.0^2,6]dodeca-1(9),2,4,7,11-pentaene], the IC50 in assay [1] and in assay [2] was below 10 nM in each case.
As for `Cc1nc2cc(NC(=O)C3CC3)nc(-c3ccco3)n2n1` [Compound 29, N-[5-(furan-2-yl)-2-methyl-[1,2,4]triazolo[1,5-c]pyrimidin-7-yl]cyclopropanecarboxamide], the 50% inhibitory concentration (IC50) in assay [1] and in assay [2] was below 10 nM in each case.
For `Cc1cn2c(Cl)c(N)nc(-c3ccccc3C)c2n1` [Compound 216, 5-chloro-2-methyl-8-(2-methylphenyl)imidazo[1,2-a]pyrazin-6-amine], the IC50 in assay [1] and in assay [2] was above 1000 nM throughout.
For `Cc1ccc(-c2nc(N)cn3cc(C(F)(F)F)nc23)o1` [Compound 195, 8-(5-methylfuran-2-yl)-2-(trifluoromethyl)imidazo[1,2-a]pyrazin-6-amine], the IC50 was 10 to 100 nM in assay [1] and 100 to 1000 nM in assay [2].
As for `Cc1ccc(-c2nc(NC(=O)C3CC3)cc3nc(C4CCCC4)nn23)o1` [Compound 66, N-[2-cyclopentyl-5-(5-methylfuran-2-yl)-[1,2,4]triazolo[1,5-c]pyrimidin-7-yl]cyclopropanecarboxamide], the IC50 in assay [1] is below 10 nM; in assay [2], 10 to 100 nM.
For the molecule `Cc1ccc(-c2nc3c(c4nc(C(C)C)nn24)CC(=O)N3)o1` [Compound 98, 7-(5-methylfuran-2-yl)-4-propan-2-yl-3,5,6,8,10-pentazatricyclo[7.3.0.0^2,6]dodeca-1(9),2,4,7-tetraen-11-one], the concentration for half-maximal inhibition (IC50) fell in the range of 10 to 100 nM in assay [1] and 100 to 1000 nM in assay [2].

A word on the IC50: it is the midpoint of a concentration-inhibition curve.

(Values after patent publication US11718622B2, “Heterocyclic adenosine receptor antagonists” (Exelixis, Inc., priority 2020, dated 2023).)
